Where no end group is shown, it is not given here.
Assays:
WT animals = experiment: Blood glucose and plasma insulin 15 min after intraperitoneal UCN2; type: in vivo, mouse; settings: 1 mg/kg IP, 15 min post-dose; n = 5
Procedure: WT animals were injected IP with 1 mg/kg recombinant UCN2 or an equivalent volume of saline. Blood glucose and plasma insulin measurements were made pre-injection and 15 min post-dose. 20 min after the injection animals were euthanized and gastrocnemius muscle was dissected and snap-frozen in liquid nitrogen. The tissue was pulverized and homogenized in 700 ul SDS-buffer (0.1 M Tris/HCl 7.6, 4% SDS, 0.1 mM DTT), heated for 5 min at 95 °C and sonicated (Bioruptor®Plus Diagenode, 30 sec on-30sec off cycle for 10 cycles). After centrifugation for 10 min at 10,000 x g at 15 °C, the proteins in the supernatant were precipitated with 4X (volumes) ice-cold acetone (−20 °C) and stored at −20 °C overnight. The precipitates were centrifuged for 15 min at 10,000 × g, acetone was decanted, and the resulting pellets were dried for 10 min at room temperature. The pellet was resuspended in 500ul denaturing buffer (8 M urea and 10 mM Tris, pH 8.5) and sonicated (Bioruptor®Plus Diagenode, 30 s on-30 s off cycle for 5 cycles). The protein concentration was determined with a Bradford assay (Bio-Rad, Hercules, CA, USA). The proteins were reduced with dithiothreitol (DTT) 5 mM final concentration for 60 min at 37 °C and alkylated with iodoacetamide (8 mM final concentration) for 45 min at RT in the dark. […]

male mice [1] = experiment: Glucose tolerance test (oGTT / IPGTT), blood glucose; type: in vivo, mouse
Procedure: (§1) All metabolic tests were performed using standard protocols on male littermates (aged: 10–14 weeks). For glucose tolerance tests (GTTs), animals were fasted for 8 h with ad libitum access to water. Fasting glucose measurements were taken before […] oral glucose dose. Blood glucose measurements were taken via tail nick using the AlphaTRAK 2 Glucose Monitoring System (Zoetis, Parsippany-Troy Hills, NJ) at 10, 30, 60, and 120 min after dose. Blood was collected for insulin measurement in EDTA tubes (Becton, Dickinson and Company, Franklin Lakes, NJ) and centrifuged to collect plasma (2000 g for 10 min at 4 °C), which was stored at −80 °C until analysis at 10, 30, 60, and 120 min after dose. Insulin levels were measured using an Ultrasensitive Mouse Insulin ELISA (ALPCO, Salem, NH), according to manufacturer’s instructions. For insulin tolerance tests (ITTs), animals were fasted for 8 h and blood glucose was measured before (0 min) and at 30, 60, 90, and 120 min following IP injection of 0.75 IU/kg of insulin (Humulin R, Eli Lilly, Indianapolis, IN). […]

[2] = tested on: AKT1S1, IRS1, AKT phosphorylation; experiment: Ex vivo soleus muscle insulin signaling (Western blot); parameters: species or system mouse; settings: 100 nM UCN2 pre-treatment, n = 2
Procedure: Soleus muscle was removed from fed animals anesthetized by an intraperitoneal injection of pentobarbital (10 mg/100 g body weight). Dissected soleus muscles were suspended at 5 mN of tension in incubation chambers (Model 610/820 M, Danish Myo-Technology, Denmark) containing Krebs-Ringer-Buffer supplemented with 0.1% BSA, 2 mM pyruvate and 8 mM Mannitol. During the entire incubation period the KRB was maintained at 30 °C and oxygenated with 95% O2 and 5% CO2. Following 10 min of pre-incubation muscles were incubated in Krebs buffer +/− 100 nM (−7.0 log[M]) UCN2. At the next time point, 30 min later, muscles were placed in baths containing Krebs buffer +/− 100 nM (−7.0 [M]) UCN2. At the next time point, 15 min later, muscles were placed in baths containing Krebs buffer +/− 100 nM (−7.0 log[M]) UCN2 + /− 60 nM Insulin (Actrapid, Novo Nordisk, Bagsvaerd, Denmark) for 15 min. For the ex vivo glucose uptake studies, 1 mM [^3H]2-deoxyglucose (Perkin-Elmer) and 7 mM [^14C]mannitol (Perkin-Elmer) was also added at this time. Muscles that were in saline in the first bath, saline in the second bath, and saline in the third bath were assigned to the SSS group. Muscles that were in saline in the first bath, saline in the second bath, and UCN2 in the third bath were assigned to the SSU group. […]

male mice [3] = experiment: Insulin tolerance test (ITT), blood glucose; type: in vivo, mouse; parameters: dose or concentration left out as unconfirmed; settings: 0.05, 0.2
Procedure: as §1

male mice [4] = experiment: Plasma insulin during glucose tolerance test; type: in vivo, mouse; settings: 1 mg/kg IP UCN2
Procedure: as §1

## IVLSLDVPIGLLQILLEQARARAAREQATTNARILARVGHC-NH2 (C-terminus assumed) [UCN2, Urocortin 2]
WT animals
  blood glucose levels after injection: significantly increased blood glucose levels
  plasma insulin after injection: no significant difference
Male mice [1]; UCN2.AAV animals injected acutely with UCN2
  glucose tolerance after acute UCN2 in UCN2.AAV animals: worsened glucose tolerance
Male mice [1]; oGTT twenty minutes after 1 mg/kg IP UCN2
  glucose tolerance in oGTT: glucose intolerance
[2]
  AKT1S1, IRS1 and AKT phosphorylation after UCN2 pre-treatment ex vivo: increased AKT1S1, IRS1, and AKT phosphorylation
Male mice [3]
  effect of increasing doses in ITT: decreasing rates of glucose uptake in response to insulin injection
Male mice [4]
  plasma insulin levels during the oGTT versus vehicle: No significant difference
